This is an account of results in US20190358181A1, “METHODS FOR AUTISM SPECTRUM DISORDER PHARMACOTHERAPY” (priority 2017, published 2019).

In assay [1] the test system is males with ASD. In words: Repetitive Behavior Questionnaire (RBQ), SAT-1 trial. It is filed as in vivo, human. As for the experimental part: Two observational examinations were performed by a clinician at 3 time points: baseline (56±8 days; mean±SEM; before the infusion), 2-days post-infusion, and 6-weeks post-infusion. The two examiner-based metrics were the Autism Diagnostic Observation Schedule, 2nd edition (ADOS-2) with video and audio files recorded on 3 cameras, and the Expressive One Word Picture Vocabulary Testing (EOWPVT). Both of these observational metrics were administered by a trained and certified examiner using approved test materials. Three standardized questionnaires were completed by parents at 3 time points: baseline, 7-days post-infusion, and 6-weeks post-infusion. The three standardized questionnaires completed by parents were the 58-question Aberrant Behavior Checklist (ABC), the 75-item Autism Treatment Evaluation Checklist (ATEC), and the 33-item repetitive behavior questionnaire (RBQ). Parents were asked to complete these three instruments with reference to how their child behaved in the previous 7 days. […]
Behavioral and neurological effects of treatment were assessed primarily by the examiner-based ADOS-2 protocol scores and standardized vocabulary testing (Expressive One Word Picture Vocabulary Test, EOWPVT), with secondary evaluation via parent-based assessments (Aberrant Behavior Checklist (ABC) scores, Autism Treatment Evaluation Checklist (ATEC) scores, Clinical Global Impression of Improvement (CGI) scores, and Repetitive Behavior Questionnaire (RBQ) scores). […] Examiner-based outcomes (ADOS and EOWPVT) were assessed at 2-days and 6-weeks after the infusion. Parent-based outcomes (ABC, ATEC, CGI, and RBQ) were assessed at 7-days and 6-weeks after the infusion. […]
Each child was used as their own control to examine before and after treatment effects from Example 1 in a paired t-test design for the analysis of the ADOS, EOWPVT, ABC, ATEC, RBQ (FIGS. 4-11 show individual analyses), and blood and urine safety data (FIGS. 2 and 3 show individual analyses). […] Categorical data, such as the presence or absence of adverse events or historical symptoms was analyzed by Fisher's exact test. […]

Assay [2] deals with males with ASD. In words: Clinical Global Impression (CGI) 24-question instrument, SAT-1 trial. The assay is classed as in vivo, human. The note with it: for Difference from baseline (mean ± sd) / d (Cohen's d): 45 days after treatment. As for the experimental part:
Two observational examinations were performed by a clinician at 3 time points: baseline (56±8 days; mean±SEM; before the infusion), 2-days post-infusion, and 6-weeks post-infusion. The two examiner-based metrics were the Autism Diagnostic Observation Schedule, 2nd edition (ADOS-2) with video and audio files recorded on 3 cameras, and the Expressive One Word Picture Vocabulary Testing (EOWPVT). Both of these observational metrics were administered by a trained and certified examiner using approved test materials. Three standardized questionnaires were completed by parents at 3 time points: baseline, 7-days post-infusion, and 6-weeks post-infusion. The three standardized questionnaires completed by parents were the 58-question Aberrant Behavior Checklist (ABC), the 75-item Autism Treatment Evaluation Checklist (ATEC), and the 33-item repetitive behavior questionnaire (RBQ). Parents were asked to complete these three instruments with reference to how their child behaved in the previous 7 days. At the end of the six weeks, we included a 24-question Clinical Global Impression (CGI) questionnaire (FIG. 16). In addition, parents were asked to list the 3 top behaviors or symptoms that they observed to be most changed over the previous 6-weeks. To minimize the misinterpretation of natural day-to-day variations in symptoms, parents were asked to mark a symptom as changed in the 6-week CGI only if it had lasted for at least 1 week.
We developed a 24-question Clinical Global Impression (CGI) instrument designed to assess the core symptoms of autism spectrum disorders and some of the most common comorbid features (FIG. 16). The CGI instrument scoring system was the traditional 7-point, CGI-Improvement scale. See, for e.g. Busner and Targum. Psychiatry. 2007(4):28-37. In this scale, the historian gives a score of 0 if the symptom “was never a problem”, a 1 for “very much improved”, a 4 for “no change”, and a 7 for “very much worse”. In addition to the 24 structured questions, we asked the parents to write in the top 3 symptoms or behaviors that were most changed over the 6 weeks since the suramin infusion. This hybrid design of structured and open-ended responses permitted us to capture a large number of clinical outcomes associated with single dose suramin treatment.
For the test dose, 50 mg of suramin hexasodium (Bayer Pharmaceuticals, Inc.) in 5 mL of saline (experimental arm, 5 patients), or 5 mL of saline only (control arm, 5 patients) were given by slow intravenous (IV) push over 3 minutes, followed by a 10 mL flush of saline. One hour after the test dose, vital signs were repeated and a single infusion of either suramin (20 mg/kg, minus the 50 mg test dose, in 50 mL, up to a maximum of 1 gram) or saline (50 mL IV) was given over 30 minutes, followed by a 10 mL flush of saline.
Behavioral and neurological effects of treatment were assessed primarily by the examiner-based ADOS-2 protocol scores and standardized vocabulary testing (Expressive One Word Picture Vocabulary Test, EOWPVT), with secondary evaluation via parent-based assessments (Aberrant Behavior Checklist (ABC) scores, Autism Treatment Evaluation Checklist (ATEC) scores, Clinical Global Impression of Improvement (CGI) scores, and Repetitive Behavior Questionnaire (RBQ) scores). See General Methods for information related to behavioral test administration. Prior to the study, diagnosis of each of the enrolled participants was confirmed by ADOS-2 comparison scores of ≥7, and non-verbal IQ was tested by Leiter-3 examination. Examiner-based outcomes (ADOS and EOWPVT) were assessed at 2-days and 6-weeks after the infusion. Parent-based outcomes (ABC, ATEC, CGI, and RBQ) were assessed at 7-days and 6-weeks after the infusion. To minimize the effects of natural behavioral variability, the parents were instructed to mark a behavior as changed only if it was persistently changed for at least 1 week. […]

Where [3] appears, read: RBQ Total, 45 days after treatment.

For `Cc1ccc(C(=O)Nc2ccc(S(=O)(=O)O)c3cc(S(=O)(=O)O)cc(S(=O)(=O)O)c23)cc1NC(=O)c1cccc(NC(=O)Nc2cccc(C(=O)Nc3cc(C(=O)Nc4ccc(S(=O)(=O)O)c5cc(S(=O)(=O)O)cc(S(=O)(=O)O)c45)ccc3C)c2)c1` [Suramin, suramin], the “Repetitive Behavior Questionnaire (RBQ) scores” value in the assay with males with ASD [1] (6-weeks) is given as “did not capture a change”. Further, the “Difference from baseline (mean ± sd)” value with males with ASD [1] (setting [3]) is −3.2 ± 5.8; with males with ASD [2] (CGI E. Language (expressive language)) it was −2.0 ± 1.04; with males with ASD [2] (CGI Overall ASD symptoms), −1.8 ± 1.04; in the assay with males with ASD [2] (CGI Social Inter. (social interaction)), −2.0 ± 1.04. The “d (Cohen's d)” value was 0.55 in the assay on males with ASD [1] (setting [3]), 1.9 in the assay with males with ASD [2] (CGI E. Language), 1.7 with males with ASD [2] (CGI Overall ASD symptoms) and 1.9 in the assay with males with ASD [2] (CGI Social Inter.). For the same compound, in the assay with males with ASD [2] (6-weeks, 24 symptoms (FIG. 10C)), the “symptoms covered in the CGI that were significant” value is on record as “Four of 24”.
